Data as given in patent publication US20260250272A1, “N-SUBSTITUTED QUINOLINONE COMPOUND, PREPARATION METHOD THEREFOR AND USE THEREOF” (VIGONVITA LIFE SCIENCES CO., LTD., priority 2022, published 2026).
Converted amounts (≈) assume the structure as drawn.

Assays:
[1] = Oil solubility test in benzyl benzoate (HPLC); format: physicochemical; conditions: organic solvent or mixture, thermodynamic from solid, 25° C., shaken 2 h
Method: The solubility test was performed by quantitative analysis using an external standard method of high-performance liquid chromatography.
Reference sample solution: 10 mg of reference sample was weighed, placed in a 20 mL volumetric flask, diluted to the scale with 80% acetonitrile, and shaken uniformly.
Test sample solution: an appropriate amount of sample was dissolved in benzyl benzoate to obtain a saturated solution. The mixture was placed in a shaker and shaken at 25° C. and 800 rpm for 2 h. The sample solution was filtered, and 100 μL of filtrate was added to a 10 mL volumetric flask, diluted to the scale with 80% acetonitrile, and shaken uniformly.

[2] = molecular target: human recombinant D2L receptor (Homo sapiens, UniProt P14416); assay: Antagonistic activity against the D2L receptor (LANCE Ultra cAMP, CHO cells)
Method: The antagonistic effect of the compounds on the D2L receptor in the CHO cells expressing the human recombinant D2L receptor was assayed by using the LANCE® Ultra cAMP kit (PerkinElmer, USA). […] Amisulpride was used as a positive control.

[3] = molecular target: T1, human recombinant 5-HT2A receptor (Homo sapiens, UniProt P28223); assay: Antagonistic activity against the 5-HT2A receptor (IP-One-Gq, CHO cells); format: cell-based; conditions: serotonin stimulation
T1 construct: expressed in transfected cells; host or cells: CHO (5-HT2A-CHO)
Method: The antagonistic effect of the compounds on the 5-HT2A receptor in the CHO cells expressing the human recombinant 5-HT2A receptor was assayed by using the IP-One-Gq kit (Cisbio). […] Risperidone was used as a positive control.

[4] = molecular target: T2, hERG potassium channel (Homo sapiens, UniProt Q12809); assay: hERG potassium channel block, automatic patch clamp (QPatch, CHO cells); format: cell-based; conditions: CHO cells stably expressing hERG, highest concentration 20 μM; read-out: hERG inhibition (IC50)
T2 construct: expressed in transfected cells
Method: The hERG potassium channel block experiment was performed using the full-automatic patch-clamp technique (QPatch^HTX, Sophion, Stockholm, Sweden). The cell line is CHO cells stably expressing the hERG potassium channel. The compounds were tested at the highest test concentration of 20 μM in 3-fold dilution (n=3).

[5] = Human liver microsome assay; format: in vitro ADME; conditions: for half-life at 1 μM / CLint scaled at 1 μM: pH 7.41, human liver microsomes 0.5 mg/mL, compound 1 μM, NADPH 2 mM; for half-life at 1 μM: read-out: Half-life (t1/2, min); for CLint scaled at 1 μM: read-out: Intrinsic clearance (Clint, mL/min/kg)
Method: Preparation of magnesium-potassium buffer solution: a 100 mM potassium buffer and 5 mM MgCl2 were preheated together to obtain a magnesium-potassium buffer at a pH of 7.41. Preparation of 0.5 mM working solution: a 10 mM compound stock solution was added to 95 μL of acetonitrile. Preparation of 1.5 μM working solution containing microsomes (0.75 mg/mL): 1.5 μL of the 0.5 mM working solution and 18.75 μL of 20 mg/mL human liver microsome solution were added to 479.75 μL of the magnesium-potassium buffer. Preparation of NADPH stock solution (6 mM, 5 mg/mL): NADPH was dissolved in the magnesium-potassium buffer. 30 μL of 1.5 μM working solution containing 0.75 mg/mL human liver microsomes were added to each of the wells of a 96-well plate, and the plate was pre-incubated at 37° C. for 5 min. For a sample at 0 min, 150 μL of acetonitrile solution containing an internal standard was added, and then 15 μL of NADPH stock solution (6 mM) was added to initiate the reaction. For samples at other time points, 15 μL of NADPH stock solution (6 mM) was directly added to initiate the reaction. Final content of components: compound (1 μM), human liver microsomes (0.5 mg/mL), and NADPH (2 mM). 150 μL of cold stop buffer containing an internal standard was added at time points of 5 min, 15 min, 30 min, and 45 min to stop the sample reaction, the plate was centrifuged at 600 rpm for 10 min and then at 6000 rpm for 15 min, and the supernatant was taken for LC-MS/MS analysis.
A standard curve of the ln residual rate of the drug in the incubation system with respect to the incubation time was plotted by using Excel software, linear regression was performed to obtain a slope k, and the half-life T1/2 (min) and the intrinsic clearance CLint (mL/min/kg) value were calculated according to the following formula: […]

T2 sequence (Q12809 whole entry): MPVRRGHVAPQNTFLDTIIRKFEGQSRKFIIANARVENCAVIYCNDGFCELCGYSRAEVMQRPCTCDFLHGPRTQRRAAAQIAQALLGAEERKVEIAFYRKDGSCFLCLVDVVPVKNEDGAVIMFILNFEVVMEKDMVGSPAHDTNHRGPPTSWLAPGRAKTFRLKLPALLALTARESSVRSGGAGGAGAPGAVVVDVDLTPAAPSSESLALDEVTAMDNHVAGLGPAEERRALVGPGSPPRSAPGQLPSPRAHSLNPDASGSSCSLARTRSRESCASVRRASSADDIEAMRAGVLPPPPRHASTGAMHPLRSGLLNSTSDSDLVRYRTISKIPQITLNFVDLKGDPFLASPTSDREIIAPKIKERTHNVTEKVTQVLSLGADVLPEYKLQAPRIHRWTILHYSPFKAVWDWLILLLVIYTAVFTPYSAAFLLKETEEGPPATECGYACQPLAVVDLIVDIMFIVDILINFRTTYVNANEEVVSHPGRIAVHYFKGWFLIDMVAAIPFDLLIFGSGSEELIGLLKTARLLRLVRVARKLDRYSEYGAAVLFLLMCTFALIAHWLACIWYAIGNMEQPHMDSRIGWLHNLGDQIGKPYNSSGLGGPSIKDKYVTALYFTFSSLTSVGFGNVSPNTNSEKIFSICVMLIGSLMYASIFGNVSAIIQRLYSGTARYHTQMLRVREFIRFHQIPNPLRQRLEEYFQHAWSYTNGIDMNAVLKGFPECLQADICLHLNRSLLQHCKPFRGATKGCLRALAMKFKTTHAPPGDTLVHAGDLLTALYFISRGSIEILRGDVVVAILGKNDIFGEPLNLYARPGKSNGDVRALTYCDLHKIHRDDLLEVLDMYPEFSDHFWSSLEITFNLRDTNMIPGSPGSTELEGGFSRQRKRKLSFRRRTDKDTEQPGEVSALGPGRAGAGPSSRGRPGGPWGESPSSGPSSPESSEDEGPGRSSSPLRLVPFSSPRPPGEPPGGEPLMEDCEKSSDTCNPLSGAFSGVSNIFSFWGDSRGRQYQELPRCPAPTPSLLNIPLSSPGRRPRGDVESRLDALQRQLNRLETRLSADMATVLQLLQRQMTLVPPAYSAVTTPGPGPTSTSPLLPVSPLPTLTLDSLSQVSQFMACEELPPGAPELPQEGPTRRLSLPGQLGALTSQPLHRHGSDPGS
Sequence of human recombinant D2L receptor (P14416 whole entry): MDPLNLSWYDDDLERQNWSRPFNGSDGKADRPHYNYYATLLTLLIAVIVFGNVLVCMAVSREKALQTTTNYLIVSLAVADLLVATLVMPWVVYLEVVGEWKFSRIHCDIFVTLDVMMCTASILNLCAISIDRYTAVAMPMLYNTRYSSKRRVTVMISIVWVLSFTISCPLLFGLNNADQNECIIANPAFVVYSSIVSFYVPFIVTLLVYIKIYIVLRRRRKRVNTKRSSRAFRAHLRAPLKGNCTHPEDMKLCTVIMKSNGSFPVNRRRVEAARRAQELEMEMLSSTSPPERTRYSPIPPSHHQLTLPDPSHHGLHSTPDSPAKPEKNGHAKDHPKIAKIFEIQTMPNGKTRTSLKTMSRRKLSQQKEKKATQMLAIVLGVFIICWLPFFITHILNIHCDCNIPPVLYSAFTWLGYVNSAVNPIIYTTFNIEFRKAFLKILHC
T1 sequence (P28223 whole entry): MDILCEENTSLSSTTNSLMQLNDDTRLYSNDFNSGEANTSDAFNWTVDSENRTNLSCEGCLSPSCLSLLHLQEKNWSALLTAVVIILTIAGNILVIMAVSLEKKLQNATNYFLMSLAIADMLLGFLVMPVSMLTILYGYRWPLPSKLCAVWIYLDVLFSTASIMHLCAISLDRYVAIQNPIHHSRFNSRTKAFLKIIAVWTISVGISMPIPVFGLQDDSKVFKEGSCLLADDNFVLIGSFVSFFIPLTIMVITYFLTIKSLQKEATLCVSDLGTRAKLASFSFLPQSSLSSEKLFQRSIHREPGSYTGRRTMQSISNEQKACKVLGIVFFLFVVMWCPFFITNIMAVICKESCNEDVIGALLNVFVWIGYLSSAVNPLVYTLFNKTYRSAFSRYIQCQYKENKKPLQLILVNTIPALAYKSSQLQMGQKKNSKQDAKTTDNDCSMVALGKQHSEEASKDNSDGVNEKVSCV

## O=C1CCc2ccc(CCN3CCN(c4cc(F)cc5sccc45)CC3)cc2N1 [Compound 1-a, 7-(2-(4-(6-fluorophenothiophen-4-yl)piperazin-1-yl)ethyl)-3,4-dihydroquinolin-2(1H)-one, reference compound]
[1]
  solubility at 2 h: 22.4 mg/mL (≈ 54.6 mM)
[2]
  IC50: 0.0044 µM
[3]
  IC50: 0.033 µM
[4]
  IC50: 0.92 µM

## CC(C)OC(=O)OCN1C(=O)CCc2ccc(CCN3CCN(c4cc(F)cc5sccc45)CC3)cc21 [Compound 2]
[1]
  solubility at 2 h: 75 mg/mL (≈ 143 mM)
[5]
  half-life at 1 μM: 0.69 min
  CLint scaled at 1 μM: 2530 mL/min/kg

## CCCCCCCCCCCC(=O)OCN1C(=O)CCc2ccc(CCN3CCN(c4cc(F)cc5sccc45)CC3)cc21 [Compound 3]
[1]
  solubility at 2 h: > 200 mg/mL
[5]
  half-life at 1 μM: 367 min
  CLint scaled at 1 μM: 4.73 mL/min/kg

## CC(=O)OCN1C(=O)CCc2ccc(CCN3CCN(c4cc(F)cc5sccc45)CC3)cc21 [Compound 5]
[1]
  solubility at 2 h: 23.4 mg/mL (≈ 48.7 mM)
[5]
  half-life at 1 μM: 0.87 min
  CLint scaled at 1 μM: 2000 mL/min/kg

## CCCCC(=O)OCN1C(=O)CCc2ccc(CCN3CCN(c4cc(F)cc5sccc45)CC3)cc21 [Compound 6]
[1]
  solubility at 2 h: 166 mg/mL (≈ 317 mM)
[5]
  half-life at 1 μM: 1 min
  CLint scaled at 1 μM: 1720 mL/min/kg

## CCCCCCCCCC(=O)OCN1C(=O)CCc2ccc(CCN3CCN(c4cc(F)cc5sccc45)CC3)cc21 [Compound 7, (7-(2-(4-(6-fluorobenzo[b]thiophen-4-yl)piperazin-1-yl)ethyl)-2-oxo-3,4-dihydroquinolin-1(2H)-yl)methyl decanoate]
[1]
  solubility at 2 h: > 200 mg/mL
[5]; human liver microsomes
  Metabolic stability in human liver microsomes (in words): good metabolic stability
[5]
  half-life at 1 μM: 30 min
  CLint scaled at 1 μM: 56.8 mL/min/kg

## CCCCCCCCCCCCCCCCCC(=O)OCN1C(=O)CCc2ccc(CCN3CCN(c4cc(F)cc5sccc45)CC3)cc21 [Compound 68, (7-(2-(4-(6-Fluorobenzo[b]thiophen-4-yl)piperazin-1-yl)ethyl)-2-oxo-3,4-dihydroquinolin-1(2H)-yl) methyl stearate]
[1]
  solubility at 2 h: > 200 mg/mL

## CCCCCCCCCCCCCCCCCCCC(=O)OCN1C(=O)CCc2ccc(CCN3CCN(c4cc(F)cc5sccc45)CC3)cc21 [Compound 69, (7-(2-(4-(6-Fluorobenzo[b]thiophen-4-yl)piperazin-1-yl)ethyl)-2-oxo-3,4-dihydroquinolin-1(2H)-yl) methyl icosanoate]
[1]
  solubility at 2 h: > 200 mg/mL

## CCCCCCCCCCNC(=O)OCN1C(=O)CCc2ccc(CCN3CCN(c4cc(F)cc5sccc45)CC3)cc21 [Compound 71, (7-(2-(4-(6-Fluorobenzo[b]thiophen-4-yl)piperazin-1-yl)ethyl)-2-oxo-3,4-dihydroquinolin-1(2H)-yl) methyl decylcarbamate]
[1]
  solubility at 2 h: > 200 mg/mL

## C=CCCCCCCCCC(=O)OCN1C(=O)CCc2ccc(CCN3CCN(c4cc(F)cc5sccc45)CC3)cc21 [Compound 72, (7-(2-(4-(6-Fluorobenzo[b]thiophen-4-yl)piperazin-1-yl)ethyl)-2-oxo-3,4-dihydroquinolin-1(2H)-yl) methyl undec-10-enoate]
[1]
  solubility at 2 h: > 200 mg/mL

## CCCCCCCC/C=C\CCCCCCCC(=O)OCN1C(=O)CCc2ccc(CCN3CCN(c4cc(F)cc5sccc45)CC3)cc21 [Compound 73, (7-(2-(4-(6-Fluorobenzo[b]thiophen-4-yl)piperazin-1-yl)ethyl)-2-oxo-3,4-dihydroquinolin-1(2H)-yl) methyl oleate]
[1]
  solubility at 2 h: > 200 mg/mL

## CCCCCCCCCCCCCCCCCCCCCC(=O)OCN1C(=O)CCc2ccc(CCN3CCN(c4cc(F)cc5sccc45)CC3)cc21 [Compound 74, (7-(2-(4-(6-fluorobenzo[b]thiophen-4-yl)piperazin-1-yl)ethyl)-2-oxo-3,4-dihydroquinolin-1(2H)-yl)methyl docosanoate]
[1]
  solubility at 2 h: > 200 mg/mL

## CCCCCCCCCCCCCCCCCCCCCCCC(=O)OCN1C(=O)CCc2ccc(CCN3CCN(c4cc(F)cc5sccc45)CC3)cc21 [Compound 75, (7-(2-(4-(6-Fluorobenzo[b]thiophen-4-yl)piperazin-1-yl)ethyl)-2-oxo-3,4-dihydroquinolin-1(2H)-yl) methyl tetracosanoate]
[1]
  solubility at 2 h: > 200 mg/mL

## CCCCCCCCCCCCCCCCCCCCCCCCCCC(=O)OCN1C(=O)CCc2ccc(CCN3CCN(c4cc(F)cc5sccc45)CC3)cc21 [Compound 76, (7-(2-(4-(6-fluorobenzo[b]thiophen-4-yl)piperazin-1-yl)ethyl)-2-oxo-3,4-dihydroquinolin-1(2H)-yl)methyl heptacosanoate]
[1]
  solubility at 2 h: > 200 mg/mL

## CCCCCCCC/C=C\CCCCCCCC(=O)OCn1c(=O)ccc2ccc(CCN3CCN(c4cc(F)cc5sccc45)CC3)cc21 [Compound 77, (7-(2-(4-(6-Fluorobenzo[b]thiophen-4-yl)piperazin-1-yl)ethyl)-2-oxoquinolin-1(2H)-yl)methyl oleate]
[1]
  solubility at 2 h: > 200 mg/mL

## CCCCC(C)(C)C(=O)OCN1C(=O)CCc2ccc(CCN3CCN(c4cc(F)cc5sccc45)CC3)cc21 [Compound 108, (7-(2-(4-(6-Fluorobenzo[b]thiophen-4-yl)piperazin-1-yl)ethyl)-2-oxo-3,4-dihydroquinolin-1(2H)-yl) methyl 2,2-dimethylhexanoate]
[1]
  solubility at 2 h: > 200 mg/mL

## CCCCCC(C)C(=O)OCN1C(=O)CCc2ccc(CCN3CCN(c4cc(F)cc5sccc45)CC3)cc21 (stereo not drawn) [Compound 110, (7-(2-(4-(6-Fluorobenzo[b]thiophen-4-yl)piperazin-1-yl)ethyl)-2-oxo-3,4-dihydroquinolin-1(2H)-yl) methyl 2-methylheptanoate]
[1]
  solubility at 2 h: > 200 mg/mL

## CCCCCC(CCCCC)C(=O)OCN1C(=O)CCc2ccc(CCN3CCN(c4cc(F)cc5sccc45)CC3)cc21 [Compound 112, (7-(2-(4-(6-Fluorobenzo[b]thiophen-4-yl)piperazin-1-yl)ethyl)-2-oxo-3,4-dihydroquinolin-1(2H)-yl) methyl 2-pentylheptanoate]
[1]
  solubility at 2 h: > 200 mg/mL

## CCCCCC(CCCCC)C(=O)OCn1c(=O)ccc2ccc(CCN3CCN(c4cc(F)cc5sccc45)CC3)cc21 [Compound 113, (7-(2-(4-(6-Fluorobenzo[b]thiophen-4-yl)piperazin-1-yl)ethyl)-2-oxoquinolin-1(2H)-yl)methyl 2-pentylheptanoate]
[1]
  solubility at 2 h: > 200 mg/mL

## C=CCCCCCCCCC(=O)N1C(=O)CCc2ccc(CCN3CCN(c4cc(F)cc5sccc45)CC3)cc21 [Compound 132, 7-(2-(4-(6-Fluorobenzo[b]thiophen-4-yl)piperazin-1-yl)ethyl)-1-(undec-10-enoyl)-3,4-dihydroquinolin-2(1H)-one]
[1]
  solubility at 2 h: > 200 mg/mL

## CCCCCCCCCC(=O)OCOC(=O)N1C(=O)CCc2ccc(CCN3CCN(c4cc(F)cc5sccc45)CC3)cc21 [Compound 133, (Decanoyloxy)methyl 7-(2-(4-(6-fluorobenzo[b]thiophen-4-yl)piperazin-1-yl)ethyl)-2-oxo-3,4-dihydroquinoline-1(2H)-carboxylate]
[1]
  solubility at 2 h: > 200 mg/mL

## CCCCCCCCCCCC(=O)OCn1c(=O)ccc2ccc(CCN3CCN(c4cc(F)cc5sccc45)CC3)cc21 [Compound 134, (7-(2-(4-(6-Fluorobenzo[b]thiophen-4-yl)piperazin-1-yl)ethyl)-2-oxoquinolin-1(2H)-yl)methyl dodecanoate]
[1]
  solubility at 2 h: > 200 mg/mL
